Experimental data from US20240423961A1, “1H-1,2,3-TRIAZOLE-4-CARBOXYLIC ACIDS FOR TREATMENT OF HYPEROXALURIA AND KIDNEY STONES” (CANTERO THERAPEUTICS, INC., priority 2021, published 2024).
Read-outs that look alike come from different tables or passages of the source.

Assay: Phase 1 SAD/MAD study: plasma pharmacokinetics of Compound 1a (LC-MS-MS, noncompartmental analysis)
Format: in vivo, human
Details: for Cmax / Tmax / half-life / AUC(0-t) / Cmax at 7 days / Tmax at 7 days / AUC(0-inf): human, plasma; for Cmax at 7 days: read-out: Day 7 Cmax; for Tmax at 7 days: read-out: Day 7 Tmax
Protocol: Pharmacokinetics: Human K2-ethylenediaminetetraacetic acid (K2-EDTA) plasma samples were analyzed for Compound 1a by a validated method over a range of 1.0 to 1000 ng/mL based on the analysis of 100 μL of sample. Human plasma containing Compound 1a and the internal standard, Compound 1a-D4, was extracted using liquid-liquid extraction and analyzed by a Sciex API 4000 LC-MS-MS equipped with an HPLC column. The peak area of the m/z 370.2→298.0 Compound 1a product ion was measured against the peak area of the m/z 374.3→302.4 Compound 1a-D4 internal standard product ion. Quantitation was performed using a weighted 1/x^2 linear least squares regression analysis generated from calibration standards prepared on the day of extraction.
Pharmacokinetic analysis: Pharmacokinetic calculations based on Compound 1a plasma concentrations were performed using noncompartmental analysis in Phoenix WinNonlin (Certara, Princeton, New Jersey). […] Accumulation ratio based on Cmax was calculated as (Cmax,day 7)/(Cmax, day 1).
Subject disposition: Six cohorts of 6 to 8 subjects each (N=up to 48) were administered single doses of 40, 120, 360, 1,000, 2,000, and 3,000 mg of Compound 1a in Part A under fasting conditions. Following a 2-week washout, subjects in the 1,000 mg cohort were administered a second 1,000 mg single dose following a high-fat breakfast. Six cohorts of 8 healthy subjects each were administered multiple doses of 75 mg […] (qd), 125 mg every 12 hours (q12 h), 500 mg q12 h, 500 mg qd, 750 mg qd, and 1,000 mg qd for 7 days in the MAD Part B (FIG. 1).

[1] = oral, 75 mg, MAD 75 mg qd for 7 days, average
[2] = oral, 125 mg, MAD 125 mg q12h for 7 days, average
[3] = oral, 500 mg, MAD 500 mg q12h for 7 days, average
[4] = oral, 500 mg, MAD 500 mg qd for 7 days, average
[5] = oral, 750 mg, MAD 750 mg qd for 7 days, average
[6] = oral, 1000 mg, MAD 1000 mg qd for 7 days, average
[7] = po, 40 mg, SAD 40 mg oral, fasted, average
[8] = po, 120 mg, SAD 120 mg oral, fasted, average
[9] = po, 360 mg, SAD 360 mg oral, fasted, average
[10] = po, 1000 mg, SAD 1,000 mg oral, fasted, average
[11] = po, 1000 mg, SAD 1,000 mg oral, fed, average
[12] = po, 2000 mg, SAD 2,000 mg oral, fasted, average
[13] = po, 3000 mg, SAD 3,000 mg oral, fasted, average

## O.O=C([O-])c1nn[nH]c1Oc1ccc(-c2ccc(C3CC(F)(F)C3)cc2)cc1.[Na+] [Compound 1a, sodium 5-((4′-(3,3-difluorocyclobutyl)-[1,1′-biphenyl]-4-yl)oxy)-1H-1,2,3-triazole-4-carboxylate monohydrate]
oral, 40 mg, single dose 40 mg, healthy volunteers, geometric mean
  Cmax: 2.04 µg/mL
oral, 40 mg, single dose 40 mg, healthy volunteers, geometric mean (geometric CV %), read-out: Tmax
  Tmax: 1.9 h
oral, 40 mg, single dose 40 mg, healthy volunteers, geometric mean (geometric CV %), read-out: t1/2 (converted)
  half-life: 25 h
oral, 40 mg, single dose 40 mg, healthy volunteers, geometric mean, read-out: AUClast
  AUC(0-t): 13.9 µg·h/mL
oral, 75 mg, MAD 75 mg qd for 7 days, average, read-out: Day 7 AUC0-24
  AUC(0-t): 23.9 µg·h/mL
[1]
  Cmax at 7 days: 3.42 µg/mL
  Tmax at 7 days: 2.45 h
oral, 120 mg, single dose 120 mg, healthy volunteers, geometric mean
  Cmax: 5.02 µg/mL
oral, 120 mg, single dose 120 mg, healthy volunteers, geometric mean (geometric CV %), read-out: Tmax
  Tmax: 2.3 h
oral, 120 mg, single dose 120 mg, healthy volunteers, geometric mean (geometric CV %), read-out: t1/2 (converted)
  half-life: 22 h
oral, 120 mg, single dose 120 mg, healthy volunteers, geometric mean, read-out: AUClast
  AUC(0-t): 41 µg·h/mL
oral, 125 mg, MAD 125 mg q12h for 7 days, average, read-out: Day 7 AUC0-12
  AUC(0-t): 45.6 µg·h/mL
[2]
  Cmax at 7 days: 6.45 µg/mL
  Tmax at 7 days: 2.04 h
oral, 360 mg, single dose 360 mg, healthy volunteers, geometric mean
  Cmax: 10.5 µg/mL
oral, 360 mg, single dose 360 mg, healthy volunteers, geometric mean (geometric CV %), read-out: Tmax
  Tmax: 2.3 h
oral, 360 mg, single dose 360 mg, healthy volunteers, geometric mean (geometric CV %), read-out: t1/2 (converted)
  half-life: 26 h
oral, 360 mg, single dose 360 mg, healthy volunteers, geometric mean, read-out: AUClast
  AUC(0-t): 83.2 µg·h/mL
oral, 500 mg, MAD 500 mg q12h for 7 days, average, read-out: Day 7 AUC0-12
  AUC(0-t): 342 µg·h/mL
[3]
  Cmax at 7 days: 43.8 µg/mL
  Tmax at 7 days: 1.44 h
oral, 500 mg, MAD 500 mg qd for 7 days, average, read-out: Day 7 AUC0-24
  AUC(0-t): 133 µg·h/mL
[4]
  Cmax at 7 days: 17 µg/mL
  Tmax at 7 days: 2.35 h
oral, 750 mg, MAD 750 mg qd for 7 days, average, read-out: Day 7 AUC0-24
  AUC(0-t): 214 µg·h/mL
[5]
  Cmax at 7 days: 24.3 µg/mL
  Tmax at 7 days: 2.62 h
oral, 1000 mg, MAD 1000 mg qd for 7 days, average, read-out: Day 7 AUC0-24
  AUC(0-t): 303 µg·h/mL
[6]
  Cmax at 7 days: 29.9 µg/mL
  Tmax at 7 days: 2.18 h
oral, 1000 mg, single dose 1000 mg, healthy volunteers, geometric mean
  Cmax: 17.2 µg/mL
oral, 1000 mg, single dose 1000 mg, healthy volunteers, geometric mean (geometric CV %), read-out: Tmax
  Tmax: 2.5 h
oral, 1000 mg, single dose 1000 mg, healthy volunteers, geometric mean (geometric CV %), read-out: t1/2 (converted)
  half-life: 28 h
oral, 1000 mg, single dose 1000 mg, healthy volunteers, geometric mean, read-out: AUClast
  AUC(0-t): 184 µg·h/mL
oral, 1000 mg, single dose of 1,000 mg, fasted, read-out: average Tmax
  Tmax: 3 h
oral, 1000 mg, single dose of 1,000 mg, fasted, read-out: t1/2 (converted)
  half-life: ~26.8 h
oral, 1000 mg, single dose of 1,000 mg, fed, read-out: average Tmax
  Tmax: 5.9 h
oral, 1000 mg, single dose of 1,000 mg, fed, read-out: t1/2 (converted)
  half-life: ~25.2 h
oral, 2000 mg, single dose 2000 mg, healthy volunteers, geometric mean
  Cmax: 25.6 µg/mL
oral, 2000 mg, single dose 2000 mg, healthy volunteers, geometric mean (geometric CV %), read-out: Tmax
  Tmax: 2.9 h
oral, 2000 mg, single dose 2000 mg, healthy volunteers, geometric mean (geometric CV %), read-out: t1/2 (converted)
  half-life: 23 h
oral, 2000 mg, single dose 2000 mg, healthy volunteers, geometric mean, read-out: AUClast
  AUC(0-t): 312 µg·h/mL
oral, 3000 mg, single dose 3000 mg, healthy volunteers, geometric mean
  Cmax: 22.5 µg/mL
oral, 3000 mg, single dose 3000 mg, healthy volunteers, geometric mean (geometric CV %), read-out: Tmax
  Tmax: 2.9 h
oral, 3000 mg, single dose 3000 mg, healthy volunteers, geometric mean (geometric CV %), read-out: t1/2 (converted)
  half-life: 34 h
oral, 3000 mg, single dose 3000 mg, healthy volunteers, geometric mean, read-out: AUClast
  AUC(0-t): 225 µg·h/mL
oral, single-dose administration of 40 mg to 3,000 mg, read-out: average plasma Tmax values across dose levels
  Tmax: 1.9 to 2.9 h
oral, single-dose administration of 40 mg to 3,000 mg, read-out: average t1/2 across dose levels
  half-life: 21.9 to 33.7 h
[7]
  AUC(0-inf): 14 µg·h/mL
  Cmax: 2.04 µg/mL
po, 40 mg, SAD 40 mg oral, fasted, average, read-out: AUC0-24
  AUC(0-t): 12.1 µg·h/mL
po, 40 mg, SAD 40 mg oral, fasted, average, read-out: Tmax
  Tmax: 1.89 h
po, 40 mg, SAD 40 mg oral, fasted, average, read-out: t1/2 (converted)
  half-life: 24.6 h
[8]
  AUC(0-inf): 41.4 µg·h/mL
  Cmax: 5.02 µg/mL
po, 120 mg, SAD 120 mg oral, fasted, average, plasma (N = 5), read-out: t1/2 (converted)
  half-life: 21.9 h
po, 120 mg, SAD 120 mg oral, fasted, average, read-out: AUC0-24
  AUC(0-t): 36.7 µg·h/mL
po, 120 mg, SAD 120 mg oral, fasted, average, read-out: Tmax
  Tmax: 2.29 h
[9]
  AUC(0-inf): 83.3 µg·h/mL
  Cmax: 10.5 µg/mL
po, 360 mg, SAD 360 mg oral, fasted, average, read-out: AUC0-24
  AUC(0-t): 74.1 µg·h/mL
po, 360 mg, SAD 360 mg oral, fasted, average, read-out: Tmax
  Tmax: 2.28 h
po, 360 mg, SAD 360 mg oral, fasted, average, read-out: t1/2 (converted)
  half-life: 25.9 h
[10]
  AUC(0-inf): 214 µg·h/mL
  Cmax: 19.5 µg/mL
po, 1000 mg, SAD 1,000 mg oral, fasted, average, read-out: AUC0-24
  AUC(0-t): 174 µg·h/mL
po, 1000 mg, SAD 1,000 mg oral, fasted, average, read-out: Tmax
  Tmax: 3 h
po, 1000 mg, SAD 1,000 mg oral, fasted, average, read-out: t1/2 (converted)
  half-life: 26.8 h
[11]
  AUC(0-inf): 237 µg·h/mL
  Cmax: 14.7 µg/mL
po, 1000 mg, SAD 1,000 mg oral, fed, average, read-out: AUC0-24
  AUC(0-t): 180 µg·h/mL
po, 1000 mg, SAD 1,000 mg oral, fed, average, read-out: Tmax
  Tmax: 5.86 h
po, 1000 mg, SAD 1,000 mg oral, fed, average, read-out: t1/2 (converted)
  half-life: 25.2 h
[12]
  AUC(0-inf): 312 µg·h/mL
  Cmax: 25.6 µg/mL
po, 2000 mg, SAD 2,000 mg oral, fasted, average, read-out: AUC0-24
  AUC(0-t): 253 µg·h/mL
po, 2000 mg, SAD 2,000 mg oral, fasted, average, read-out: Tmax
  Tmax: 2.94 h
po, 2000 mg, SAD 2,000 mg oral, fasted, average, read-out: t1/2 (converted)
  half-life: 23.4 h
[13]
  AUC(0-inf): 226 µg·h/mL
  Cmax: 22.5 µg/mL
po, 3000 mg, SAD 3,000 mg oral, fasted, average, read-out: AUC0-24
  AUC(0-t): 184 µg·h/mL
po, 3000 mg, SAD 3,000 mg oral, fasted, average, read-out: Tmax
  Tmax: 2.94 h
po, 3000 mg, SAD 3,000 mg oral, fasted, average, read-out: t1/2 (converted)
  half-life: 33.7 h
Single dose of 1,000 mg, same cohort, 2-week washout
  Overall exposure, fed versus fasted (food effect): slightly lower under fed than under fasted conditions
